One may read the DC50 as the concentration giving 50% degradation. Lower therefore signals degradation at low concentration. Usually IC50 stands for the concentration needed to halve the response being measured. Low values mean greater potency in that assay, high ones weaker potency in that assay.

Consider seven compounds from patent US20260306639A1, “DEGRADER FOR DECOMPOSING CMET PROTEIN, AND PHARMACEUTICAL COMPOSITION COMPRISING SAME” (INNOCURE THERAPEUTICS, INC., priority 2022, published 2026).

Assay [1] has as its system c-MET. The assay is described as follows: c-MET protein degradation (Simple Western), EBC-1 cells. In kind it is cell-based, human. The following applies: EBC-1 lung cancer cells, c-MET overexpressing; 48 hours. As to the method:
(§1) In order to assess the resolution of the compound of the present invention for c-MET expressed in cells, cells were dispensed in a 12-well plate at a concentration of 2×10^5 cells/well, and then gastric cancer cell lines were treated with samples for 24 hours and lung cancer cell lines were treated for 48 hours. Cell lysates were collected using a scraper on ice, centrifuged at 4° C. 15,000 rpm for 30 min to obtain a protein-containing supernatant. Protein expression was then measured using the Simple Western Automated Western Blot System Abby instrument using 3 μg of protein for each sample. SDS and heat-induced denaturation proteins were separated by molecular weight, attached to capillary, reacted with anti-c-MET or anti-GAPDH antibodies, which are primary antibodies, and then reacted with HRP-conjugated secondary antibodies, and analyzed the protein expression signal with compass software. Protein expression was normalized based on the expression value of GAPDH, and protein development in each sample was measured as a percentage (%) based on 100% of samples treated with 0.1% DMSO carriers, and DC50 (concentration of a compound where 50% protein inhibition is achieved) was calculated from the change in protein expression amount due to compound treatment.

Assay [2] concerns c-MET. The assay can be described thus: c-MET protein degradation (Simple Western), SNU-638 cells. The class given is cell-based, human. The following applies: SNU-638 gastric cancer cells, c-MET overexpressing; 24 hours. As to the method:
as §1

In a further assay the test system is EBC-1. The assay can be described thus: cell viability / antiproliferative activity (WST-8), EBC-1 cells. In kind it is cell-based, human. To be noted: EBC-1 lung cancer cells, 72 hours. Background: Tetrazolium dyes change colour on reduction, which living cells bring about.
The subject of a further assay is SNU-638. The assay is described as follows: cell viability / antiproliferative activity (WST-8), SNU-638 cells. In kind it is cell-based, human. The following applies: SNU-638 gastric cancer cells, 72 hours.
Assay [3] deals with c-MET. The assay can be described thus: c-MET protein degradation (Simple Western), Hs746T cells. The class given is cell-based, human. To be noted: Hs746T gastric cancer cells, c-MET exon 14 skipping mutant; 24 hours. As to the method:
as §1

The subject of assay [4] is c-MET. The assay is described as follows: c-MET protein degradation (Simple Western), MKN-45 cells. In kind it is cell-based, human. To be noted: MKN-45 gastric cancer cells, c-MET overexpressing; 24 hours. A digest of the protocol: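 Cells at 2×10^5 cells/well exposed to compound for 24 h (gastric lines) or 48 h (lung lines). Lysates (3 μg protein) probed for c-MET by capillary Simple Western, normalized to GAPDH and expressed as % of 0.1% DMSO control. DC50 is the concentration giving 50% protein reduction.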

The subject of a further assay is MKN-45. The assay is described as follows: cell viability / antiproliferative activity (WST-8), MKN-45 cells. The following applies: Homo sapiens; MKN-45 gastric cancer cells; 72 hours. The class given is cell-based.

As for “3-((3-fluoro-4-(4-(2-(4-(4-(4-(2-(2-((S)-2-((5-(1-methyl-1H-pyrazole-4-yl)-1H-[1,2,3]triazolo[4,5-b]pyrazine-1-yl)methyl)morpholino)pyrimidine-5-yl)benzyl)piperazine-1-il)acetyl)piperazine-1-il)phenyl)amino)piperidine-2,6-dione [ICT-0001379]”, the DC50 in the assay on c-MET [1] and in the assay with c-MET [2] was under 100 nM each time. The concentration for half-maximal inhibition (IC50) in the assay on EBC-1 and in the assay with SNU-638 was under 100 nM throughout.
Take `Cc1nn(C2CCC(=O)NC2=O)c(=O)c2ccc(N3CCN(c4ccc(NC(=O)CN5CCC(COc6cnc(-c7cccc(Cn8nc(-c9cccc(C#N)c9)ccc8=O)c7)nc6)CC5)cc4)CC3)cc12` (centres unmarked) [ICT-0001207]: the 50% degradation concentration (DC50) with c-MET [3], with c-MET [1], with c-MET [2] and in the assay on c-MET [4] was under 100 nM throughout.
For the compound `Cc1nn(C2CCC(=O)NC2=O)c(=O)c2cc(N3CCN(CCC(=O)N4CCC(COc5cnc(-c6cccc(Cn7nc(-c8cccc(C#N)c8)ccc7=O)c6)nc5)CC4)CC3)ccc12` (centres unmarked) [ICT-0001215], the IC50 with MKN-45, with EBC-1 (Homo sapiens) and with SNU-638 (Homo sapiens) was under 100 nM in each case. Also, the 50% degradation concentration (DC50) in the assay on c-MET [1], in the assay on c-MET [2] and in the assay on c-MET [4] was under 100 nM in each case.
Regarding `Cc1nn(C2CCC(=O)NC2=O)c(=O)c2ccc(N3CCN(CCN4CCC(COc5cnc(-c6cccc(Cn7nc(-c8cccc(C#N)c8)ccc7=O)c6)nc5)CC4)CC3)cc12` (centres unmarked) [ICT-0001277, 3-(1-{[3-(5-{[1-(2-{4-[2-(2,6-dioxopiperidin-3-yl)-4-methyl-1-oxo-1,2-dihydrophthalazine-6-yl]piperazine-1-yl}ethyl)piperidine-4-il]methoxy}pyrimidine-2-yl)phenyl]methyl}6-oxo-1,6-dihydropyridazine-3-yl)benzonitrile], the DC50 in the assay with c-MET [3], in the assay on c-MET [1], with c-MET [2] and in the assay on c-MET [4] was under 100 nM throughout.
For `N#Cc1cccc(-c2ccc(=O)n(Cc3cccc(-c4ncc(OCC5CCN(Cc6cn(C7CCC(=O)NC7=O)nn6)CC5)cn4)c3)n2)c1` (centres unmarked) [ICT-0001384, 3-{1-[(3-{5-[(1-{[1-(2,6-dioxopiperidine-3-yl)-1H-1,2,3-triazole-4-yl]methyl}piperidine-4-il)methoxy]pyrimidine-2-yl}phenyl)methyl]-6-oxo-1,6-dihydropyridazine-3-yl}benzonitrile], the values for the DC50 in the assay on c-MET [1] and in the assay with c-MET [2] were under 100 nM and over 1000 nM, respectively. For the same compound, the half-inhibitory concentration (IC50) with EBC-1 (Homo sapiens) was under 100 nM; in the assay on SNU-638 (Homo sapiens) it was 100 to 1000 nM.
For the compound `N#Cc1cccc(-c2ccc(=O)n(Cc3cccc(-c4ncc(N5CCN(CC6CCN(c7ccc(NC8CCC(=O)NC8=O)cc7F)CC6)CC5)cn4)c3)n2)c1` (centres unmarked) [ICT-0001402], the DC50 in the assay with c-MET [3], with c-MET [1] and in the assay with c-MET [2] was under 100 nM throughout.
In the case of `N#Cc1cccc(-c2ccc(=O)n(Cc3cccc(-c4ncc(OCC5CCN(CC(=O)N6CCN(c7ccc(NC8CCC(=O)NC8=O)c(F)c7)CC6)CC5)cn4)c3)n2)c1` (centres unmarked) [ICT-0001437, 3-(1-(3-(5-((1-(1-(2-(4-((2,6-dioxopiperidine-3-yl)amino)-3-fluorophenyl)piperazine-1-yl)-2-oxoethyl)piperidine-4-yl)methoxy)pyrimidine-2-yl)benzyl)6-oxo-1,6-dihydropyridazine-3-yl)benzonitrile], the DC50 in the assay with c-MET [1] and in the assay with c-MET [2] was under 100 nM in each case. Moreover, the IC50 in the assay with EBC-1 (Homo sapiens) and in the assay with SNU-638 (Homo sapiens) was under 100 nM each time.
